“And” between values parts separate entries of the source, which are not always exact repeats. Equal entries are not always repeated.
Experiments:
[1] = system: HSV-1; experiment: Virus inhibition, HSV-1 on Vero cells (PrestoBlue); assay type: cell-based, herpes simplex virus type 1 (MacIntyre strain); details: at the non-toxic concentration of Table 1; MOI 0.1; compound and virus added simultaneously; parentheses = greater cell death than virus alone
Method: (§1) Viruses and Quantification. Herpes simplex virus type 1 (HSV-1, MacIntyre strain, ATCC, VR-539) or herpes simplex virus type 2 (HSV-2, ATCC, VR-734) were used in these studies. Virus titer was determined by plaque assay. Briefly, following 2 hour-adsorption of various virus dilutions onto a Vero cell monolayer in a 24-well plate, the medium was removed and cells were overlaid with 1.5% carboxymethylcellulose (Sigma Chemical Company, St. Louis, Mo.) and incubated 48 hours at 37° C. with 5% CO2. After incubation, cells were fixed with methanol, stained with Giemsa (Sigma Chemical Company, St. Louis, Mo.) and plaques were counted. Each virus dilution was prepared in quadruplicate.
(§2) Cytotoxicity and Virus Inhibition. All ginsenosides, isomers, and protopanaxadiols were evaluated for toxic effects on Vero cells prior to anti-viral testing. Cells were seeded at 5000 cells/well in a black 96-well plate with clear bottom in a volume of 100 μL and allowed to attach for 24 hours. The P. ginseng compounds were prepared in DMSO at 100 μM and were taken through serial two-fold dilutions to determine the concentration when the rate of cell death was less than 10% compared to control, untreated cells. Each dilution was tested in three wells and all assays were repeated three times. Following a 48 hour-incubation at 37° C. in 5% CO2, 11 μL of PrestoBlue (Invitrogen, Carlsbad, Calif.) was added to each well and the plate was incubated for an additional 30 minutes. PrestoBlue determines cell viability by changing from blue to red as resazurin is reduced to resorufin by viable cells. Following the PrestoBlue incubation, fluorescence was determined by spectrophotometric reading using Soft Max Pro (Molecular Diagnostics, San Jose, Calif., USA).
(§3) For cytotoxicity testing, 4 μL of dilutions of the ginsenosides or protopanaxadiols were added to 396 μL of medium 199 and 100 μL of this mixture was added to each of three wells. For anti-viral testing, 4 μL of the non-toxic reagent and 4 μL of HSV-1 or HSV-2 diluted to an MOI of 0.1 were added to 392 μL of medium 199 and 100 μL of this mixture was added to each of three wells. Virus inhibition was determined by comparing the cell death of reagent-exposed cells with cell death of control cells only receiving virus. The 50% inhibitory concentration (IC50) was determined through a series of two-fold dilutions and calculation by linear regression analysis.

[2] = system: Vero cells; experiment: Cytotoxicity on Vero cells (PrestoBlue); assay type: cell-based; details: for Cytotoxicity (non-toxic concentration): concentration causing less than 10% cell death compared with controls, Vero cells, 48 hour incubation, tested from 100 μM in 2-fold dilutions
Method: Cells. Vero cells (American Type Culture Collection (ATCC), Manassas, VA, CCL-81) were maintained in medium 199 (Sigma Chemical Company, St. Louis, MO) that was supplemented with 8% fetal bovine serum (Invitrogen, Carlsbad, CA), 1.25 μg/mL fungizone (Invitrogen, Carlsbad, CA) and penicillin-streptomycin, 1000 U/mL and 1 mg/mL respectively (Sigma Chemical Company, St. Louis, MO). Cells were passed weekly using 0.1% trypsin (Sigma Chemical Company, St. Louis, MO) to detach the cells from the flasks. Cell quantification was done by trypan blue exclusion.
as §2, with “The P. ginseng compounds were prepared in DMSO at 100 μM and were taken through serial two-fold dilutions to determine the concentration when the rate of cell death was less than 10% compared to control, untreated cells.” left out
as §3

[3] = system: coxsackie B 3 virus; details: 100 μg/mL; cited from earlier work
[4] = system: human rhinovirus 3; details: 100 μg/mL; cited from earlier work
[5] = system: HSV-1; experiment: Time studies of HSV-1 inhibition (PrestoBlue); assay type: cell-based, herpes simplex virus type 1; details: Human alphaherpesvirus 1; HSV-1 incubated with compound 0 to 4 hours prior to addition to cells; valacyclovir 16 μM; read-out: percent inhibition of HSV-1
Method: Time Studies. For virus inhibition studies described above, reagent 20(S)-Rg3 and virus were added to cells simultaneously. To evaluate the potential mode of action of Rg3, various combinations of valacyclovir, Rg3 and HSV-1 were tested at different time periods. The following combinations were evaluated at both one hour and four hours: • Virus applied to cells first (for one hour or four hours), followed by addition of valacyclovir, Rg3 or both valacyclovir and Rg3 to the cells; • Valacyclovir or Rg3 or both valacyclovir and Rg3 applied to cells first (for one or four hours), followed by virus; • Valacyclovir or Rg3 incubated together with virus first for one or four hours then added to cells.
All procedures described for evaluation of virus inhibition were followed in identical fashion as outlined for the PrestoBlue procedure except valacyclovir was used at a constant concentration of 16 μM and 20(S)-Rg3 at 50 μM.

[6] = system: HSV-1; experiment: Plaque reduction of HSV-1 on Vero cell monolayer; assay type: cell-based, herpes simplex virus type 1 (MacIntyre strain); details: valacyclovir 16 μM, 20(S)-Rg3 50 μM, about 50 PFU/well, 48 hours
Method: as §1
The plaque assay procedure also was used to evaluate the percent plaque reduction; the only procedural change was that a constant virus concentration was used (50 plaque forming units (PFU)/well). Plaque reduction was measured by comparing the control (virus only), with valacyclovir (16 μM) with virus or 20(S)-Rg3 (50 μM) with virus. Sample wells were evaluated in quadruplicate. Following the 2 hour-virus adsorption, the methylcellulose-medium containing the same concentrations of valacyclovir or Rg3 was added to the appropriate wells. After 48 hours, plaques were fixed, stained and counted.

Molecule: CC(C)=CCC[C@](C)(O[C@@H]1O[C@H](CO)[C@@H](O)[C@H](O)[C@H]1O)[C@H]1CC[C@]2(C)[C@@H]1[C@H](O)C[C@@H]1[C@@]3(C)CC[C@H](O)C(C)(C)[C@@H]3[C@@H](O[C@@H]3O[C@H](CO)[C@@H](O)[C@H](O)[C@H]3O)C[C@]12C [Rg1]
- Percent Inhibition of HSV-1 [1]: 13.2%

Molecule: CC(C)=CCC[C@](C)(O[C@@H]1O[C@H](CO[C@@H]2O[C@H](CO)[C@@H](O)[C@H](O)[C@H]2O)[C@@H](O)[C@H](O)[C@H]1O)[C@H]1CC[C@]2(C)[C@@H]1[C@H](O)C[C@@H]1[C@@]3(C)CC[C@H](O[C@@H]4O[C@H](CO)[C@@H](O)[C@H](O)[C@H]4O[C@@H]4O[C@H](CO)[C@@H](O)[C@H](O)[C@H]4O)C(C)(C)[C@@H]3CC[C@]12C [Rb1]
- Percent Inhibition of HSV-1 [1]: 23% and 23.3%

Molecule: CC(C)=CCC[C@](C)(O[C@@H]1O[C@H](CO[C@@H]2OC[C@@H](O)[C@H](O)[C@H]2O)[C@@H](O)[C@H](O)[C@H]1O)[C@H]1CC[C@]2(C)[C@@H]1[C@H](O)C[C@@H]1[C@@]3(C)CC[C@H](O[C@@H]4O[C@H](CO)[C@@H](O)[C@H](O)[C@H]4O[C@@H]4O[C@H](CO)[C@@H](O)[C@H](O)[C@H]4O)C(C)(C)[C@@H]3CC[C@]12C [Rb3]
- Percent Inhibition of HSV-1 [1]: 30.9%

Molecule: CC(C)=CCC[C@@](C)(O)C1CC[C@]2(C)C1[C@H](O)CC1[C@@]3(C)CC[C@H](O[C@@H]4OC(CO)[C@@H](O)[C@@H](O)C4O[C@@H]4OC(CO)[C@@H](O)[C@@H](O)C4O)C(C)(C)C3CC[C@]12C (stereo partly drawn) [20(R)-Rg3, 20(R)-ginsenoside-Rg3]
- Percent Inhibition of HSV-1 [1]: 22.7%

Molecule: CC(C)=CCC[C@](C)(O[C@@H]1O[C@H](CO[C@@H]2OC[C@H](O)[C@H](O)[C@H]2O)[C@@H](O)[C@H](O)[C@H]1O)[C@H]1CC[C@]2(C)[C@@H]1[C@H](O)C[C@@H]1[C@@]3(C)CC[C@H](O[C@@H]4O[C@H](CO)[C@@H](O)[C@H](O)[C@H]4O[C@@H]4O[C@H](CO)[C@@H](O)[C@H](O)[C@H]4O)C(C)(C)[C@@H]3CC[C@]12C [Rb2]
- Percent Inhibition of HSV-1 [1]: 26.4%

Molecule: CC(C)=CCC[C@@](C)(O)[C@H]1CC[C@]2(C)[C@@H]1[C@H](O)C[C@@H]1[C@@]3(C)CC[C@H](O)C(C)(C)[C@@H]3CC[C@]12C [20(R)-protopanaxadiol, reference compound]
- Cytotoxicity (non-toxic concentration) [2]: 12.5 µM
- Percent Inhibition of HSV-1 [1]: 14.4%

Molecule: CC(C)=CCC[C@](C)(O)[C@H]1CC[C@]2(C)[C@@H]1[C@H](O)C[C@@H]1[C@@]3(C)CC[C@H](O)C(C)(C)[C@@H]3[C@@H](O[C@@H]3O[C@H](CO)[C@@H](O)[C@H](O)[C@H]3O[C@@H]3O[C@@H](C)[C@H](O)[C@@H](O)[C@H]3O)C[C@]12C [Rg2]
- effect on coxsackie B 3 virus [3]: inhibitory effects
- effect on human rhinovirus 3 [4]: inhibitory effects

Molecule: CC(C)[C@H](N)C(=O)OCCOCn1cnc2c(=O)[nH]c(N)nc21 [Valacyclovir, reference compound]
- inhibition at 16 µM [5]: 52.3 to 54.7%
- Percent Cell Death ([2]; African green monkey, 48 h, 16 μM): 1.2±0.4%
- Percent Reduction of plaques compared to the control [6]: 85.7%
- Number of Plaques ([6]; ± standard error): 8.1 ± 1.1

Molecule: CC(C)=CCC[C@](C)(O)[C@H]1CC[C@]2(C)[C@@H]1[C@H](O)C[C@@H]1[C@@]3(C)CC[C@H](O)C(C)(C)[C@@H]3CC[C@]12C [20(S)-protopanaxadiol, reference compound]
- toxicity ([2]; 25 μM): non-toxic
- Cytotoxicity (non-toxic concentration) [2]: 12.5 µM

Molecule: 20(S)-Rh2
- Percent Inhibition of HSV-1 [1]: 46.2%

Reference: US11980648B2, “Compositions including ginsenoside 20(S)-Rg3 and methods of using ginsenoside 20(S)-Rg3 to inhibit alpha herpesvirus” (MIDDLE TENNESSEE STATE UNIVERSITY, priority 2020, dated 2024)
